Test results as given in ChEMBL document CHEMBL3421558, “Structure activity relationship of substituted 1,5-naphthyridine analogs of oxabicyclooctane-linked novel bacterial topoisomerase inhibitors as broad-spectrum antibacterial agents (Part-4)” (Bioorg Med Chem Lett, 2015).
Converted amounts (≈) assume the structure as drawn.

Tests used:
Type in all cases: functional
[1] = system: Acinetobacter baumannii; test: Antimicrobial activity against Acinetobacter baumannii IID876 by micro broth dilution or agar based method
[2] = system: Enterococcus faecium; test: Antimicrobial activity against VanA expressing vancomycin-resistant Enterococcus faecium by micro broth dilution or agar based method
[3] = system: Streptococcus pneumoniae; test: Antimicrobial activity against Streptococcus pneumoniae IID553 by micro broth dilution or agar based method
[4] = system: Escherichia coli; test: Antimicrobial activity against Escherichia coli ATCC 25922 by micro broth dilution or agar based method
[5] = system: Staphylococcus aureus; test: Antimicrobial activity against Staphylococcus aureus Smith by micro broth dilution or agar based method
[6] = system: Pseudomonas aeruginosa; test: Antimicrobial activity against Pseudomonas aeruginosa PAO1 by micro broth dilution or agar based method
[7] = system: Staphylococcus aureus; test: Antimicrobial activity against methicillin-resistant Staphylococcus aureus OIT971 by micro broth dilution or agar based method
[8] = Acinetobacter baumannii, IID876, read-out: MIC
[9] = Enterococcus faecium, read-out: MIC
[10] = Streptococcus pneumoniae, IID553, read-out: MIC
[11] = Escherichia coli, ATCC 25922, read-out: MIC
[12] = Staphylococcus aureus, Smith, read-out: MIC
[13] = Pseudomonas aeruginosa, PAO1, read-out: MIC

Row | SMILES | MIC [1, 8] [µg/mL] | MIC [2, 9] [µg/mL] | MIC [3, 10] [µg/mL] | MIC [4, 11] [µg/mL] | MIC [5, 12] [µg/mL] | MIC [6, 13] [µg/mL] | MIC [7] [µg/mL] | MIC [1] [µg/mL] | MIC [2] [µg/mL] | MIC [3] [µg/mL] | MIC [4] [µg/mL] | MIC [5] [µg/mL] | MIC [6] [µg/mL]
1 | COc1ccc2ncc(S(C)(=O)=O)c(CCC34CCC(NCc5ccc6c(n5)NC(=O)CO6)(CC3)CO4)c2n1 | 8 (≈ 14.4 µM) | 4 (≈ 7.22 µM) | 0.5 (≈ 0.903 µM) | 16 (≈ 28.9 µM) | 0.25 (≈ 0.452 µM) | 32 (≈ 57.8 µM) |  |  |  |  |  |  | 
2 | COc1ccc2ncc(Cl)c(CCC34CCC(NCc5ccc6c(n5)NC(=O)CO6)(CC3)CO4)c2n1 | 1 (≈ 1.96 µM) | 1 (≈ 1.96 µM) | 0.25 (≈ 0.49 µM) | 2 (≈ 3.92 µM) | 0.008 (≈ 0.0157 µM) | 8 (≈ 15.7 µM) | 0.008 (≈ 0.0157 µM) |  |  |  |  |  | 
3 | COc1ccc2ncc(OC)c(CCC34CCC(NCc5ccc6c(n5)NC(=O)CO6)(CC3)CO4)c2n1 | 8 (≈ 15.8 µM) | 4 (≈ 7.91 µM) | 4 (≈ 7.91 µM) | 16 (≈ 31.6 µM) | 0.125 (≈ 0.247 µM) | 64 (≈ 127 µM) | 0.063 (≈ 0.125 µM) |  |  |  |  |  | 
4 | COc1ccc2ncc(C#N)c(CC(O)C34CCC(NCc5ccc6c(n5)NC(=O)CO6)(CC3)CO4)c2n1 (single isomer, unassigned; (-)) |  |  |  |  |  |  |  | 1 (≈ 1.94 µM) | 2 (≈ 3.87 µM) | 0.25 (≈ 0.484 µM) | 4 (≈ 7.74 µM) | 0.063 (≈ 0.122 µM) | 16 (≈ 31 µM)
5 | O=C1COc2ccc(CNC34CCC(CCc5c(F)cnc6ccc(C(=O)O)nc56)(CC3)OC4)nc2N1 | 16 (≈ 31.5 µM) | 16 (≈ 31.5 µM) | 16 (≈ 31.5 µM) | 16 (≈ 31.5 µM) | 16 (≈ 31.5 µM) | 16 (≈ 31.5 µM) | 16 (≈ 31.5 µM) |  |  |  |  |  | 
6 | COc1ccc2ncc(C#N)c(CCC34CCC(NCc5ccc6c(n5)NC(=O)CO6)(CC3)CO4)c2n1 | 1 (≈ 2 µM) | 0.5 (≈ 0.999 µM) | 0.125 (≈ 0.25 µM) | 2 (≈ 4 µM) | 0.016 (≈ 0.032 µM) | 4 (≈ 7.99 µM) | 0.008 (≈ 0.016 µM) |  |  |  |  |  | 
7 | COc1nc2c(CCC34CCC(NCc5ccc6c(n5)NC(=O)CO6)(CC3)CO4)ccnc2cc1F | 2 (≈ 4.05 µM) | 4 (≈ 8.1 µM) | 2 (≈ 4.05 µM) | 4 (≈ 8.1 µM) | 0.125 (≈ 0.253 µM) | 16 (≈ 32.4 µM) | 0.063 (≈ 0.128 µM) |  |  |  |  |  | 
8 | COc1ccc2ncc(O)c(CCC34CCC(NCc5ccc6c(n5)NC(=O)CO6)(CC3)CO4)c2n1 | 2 (≈ 4.07 µM) | 2 (≈ 4.07 µM) | 0.5 (≈ 1.02 µM) | 4 (≈ 8.14 µM) | 0.031 (≈ 0.0631 µM) | 16 (≈ 32.6 µM) | 0.031 (≈ 0.0631 µM) |  |  |  |  |  | 
9 | O=C1COc2ccc(CNC34CCC(CCc5c(F)cnc6ccc(O)nc56)(CC3)OC4)nc2N1 | 2 (≈ 4.17 µM) | 8 (≈ 16.7 µM) | 4 (≈ 8.34 µM) | 4 (≈ 8.34 µM) | 0.5 (≈ 1.04 µM) | 32 (≈ 66.7 µM) | 0.25 (≈ 0.521 µM) |  |  |  |  |  | 
10 | COc1nc2c(CCC34CCC(NCc5ccc6c(n5)NC(=O)CO6)(CC3)CO4)c(F)cnc2cc1F | 1 (≈ 1.95 µM) | 2 (≈ 3.91 µM) | 0.25 (≈ 0.489 µM) | 4 (≈ 7.82 µM) | 0.031 (≈ 0.0606 µM) | 8 (≈ 15.6 µM) | 0.016 (≈ 0.0313 µM) |  |  |  |  |  | 
11 | COc1ccc2ncc(C(N)=O)c(CCC34CCC(NCc5ccc6c(n5)NC(=O)CO6)(CC3)CO4)c2n1 | 32 (≈ 61.7 µM) | 16 (≈ 30.9 µM) | 2 (≈ 3.86 µM) | 32 (≈ 61.7 µM) | 4 (≈ 7.71 µM) | 32 (≈ 61.7 µM) |  |  |  |  |  |  | 
12 | COc1ccc2ncc(C)c(CCC34CCC(NCc5ccc6c(n5)NC(=O)CO6)(CC3)CO4)c2n1 | 2 (≈ 4.09 µM) | 1 (≈ 2.04 µM) | 0.06 (≈ 0.123 µM) | 4 (≈ 8.17 µM) | 0.06 (≈ 0.123 µM) | 16 (≈ 32.7 µM) |  |  |  |  |  |  | 
13 | COc1ccc2ncc(C(F)F)c(CCC34CCC(NCc5ccc6c(n5)NC(=O)CO6)(CC3)CO4)c2n1 | 2 (≈ 3.81 µM) | 1 (≈ 1.9 µM) | 0.12 (≈ 0.228 µM) | 4 (≈ 7.61 µM) | 0.03 (≈ 0.0571 µM) | 16 (≈ 30.4 µM) |  |  |  |  |  |  | 
14 | COc1ccc2ncc(C(F)(F)F)c(CCC34CCC(NCc5ccc6c(n5)NC(=O)CO6)(CC3)CO4)c2n1 | 2 (≈ 3.68 µM) | 1 (≈ 1.84 µM) | 0.25 (≈ 0.46 µM) | 4 (≈ 7.36 µM) | 0.03 (≈ 0.0552 µM) | 32 (≈ 58.9 µM) |  |  |  |  |  |  | 
15 | COc1ccc2ncc(CO)c(CCC34CCC(NCc5ccc6c(n5)NC(=O)CO6)(CC3)CO4)c2n1 | 8 (≈ 15.8 µM) | 4 (≈ 7.91 µM) | 0.5 (≈ 0.989 µM) | 16 (≈ 31.6 µM) | 0.5 (≈ 0.989 µM) | 32 (≈ 63.3 µM) |  |  |  |  |  |  | 
